Source: ChEMBL document CHEMBL1770103, “Synthesis and biological evaluation of dibenz[b,f][1,5]oxazocine derivatives for agonist activity at κ-opioid receptor” (Eur J Med Chem, 2011)
pIC50: −log10 of the molar value. Activity calls are given as the source filed them. No cut-off for these calls is given here.

Columns and labels:
[1] = biological target: Kappa-type opioid receptor (Mus musculus) (UniProt P33534); assay: Displacement of [125I]dynorphin from kappa opioid receptor in BALB/c mouse brain membrane at 5 uM by liquid scintillation counting relative to control; format: cell membranes
Sequence of Kappa-type opioid receptor (Mus musculus) (P33534 whole entry): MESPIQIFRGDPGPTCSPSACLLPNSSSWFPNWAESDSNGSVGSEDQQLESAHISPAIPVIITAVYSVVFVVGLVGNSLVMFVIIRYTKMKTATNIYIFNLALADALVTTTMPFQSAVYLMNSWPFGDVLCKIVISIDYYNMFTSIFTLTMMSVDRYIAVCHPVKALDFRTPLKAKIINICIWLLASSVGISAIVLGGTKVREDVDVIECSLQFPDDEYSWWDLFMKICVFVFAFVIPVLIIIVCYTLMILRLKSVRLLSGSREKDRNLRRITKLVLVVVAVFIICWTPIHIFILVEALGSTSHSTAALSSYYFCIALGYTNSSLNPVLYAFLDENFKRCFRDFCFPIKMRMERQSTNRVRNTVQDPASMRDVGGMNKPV

[2] = biological target: Mu-type opioid receptor (Mus musculus) (UniProt P42866); settings: BALB/c, Brain, Membrane, at 5 µM
Sequence of Mu-type opioid receptor (Mus musculus) (P42866 whole entry): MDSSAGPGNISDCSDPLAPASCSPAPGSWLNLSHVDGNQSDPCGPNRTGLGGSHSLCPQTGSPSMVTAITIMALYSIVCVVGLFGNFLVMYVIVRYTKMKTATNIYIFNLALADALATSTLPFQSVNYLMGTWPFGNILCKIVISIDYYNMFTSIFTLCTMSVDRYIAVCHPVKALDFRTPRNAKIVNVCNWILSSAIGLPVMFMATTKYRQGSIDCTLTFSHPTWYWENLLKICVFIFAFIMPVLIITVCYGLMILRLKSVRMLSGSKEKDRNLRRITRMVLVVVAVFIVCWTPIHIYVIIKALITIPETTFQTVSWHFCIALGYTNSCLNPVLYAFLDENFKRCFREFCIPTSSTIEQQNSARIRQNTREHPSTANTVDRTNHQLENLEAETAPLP
Description: Displacement of [3H]DAMGO from mu opioid receptor in BALB/c mouse brain membrane at 5 uM by liquid scintillation counting relative to control

[3] = biological target: Kappa-type opioid receptor (Rattus norvegicus) (UniProt P34975); assay: Agonist activity at kappa opioid receptor in rat C6 cells assessed as induction of ERK1/2 phosphorylation at 40 uM after 10 min by Western blot analysis in presence of KOP antagonist norBNI; format: functional, cell-based
Sequence of Kappa-type opioid receptor (Rattus norvegicus) (P34975 whole entry): as the sequence (P33534 whole entry) above, with D11E, S17A, S51P, A308V counted along it

[4] = biological target: Kappa-type opioid receptor (Mus musculus, UniProt P33534); assay: Displacement of [125I]dynorphin from kappa opioid receptor in BALB/c mouse brain membrane by liquid scintillation counting; format: cell membranes
Sequence of Kappa-type opioid receptor (P33534 whole entry): as the sequence (P33534 whole entry) above

Compound | residual activity [1] [%] | residual activity [2] [%] | Activity [3] | pIC50 [4]
COc1ccc(N2Cc3cccc(OC)c3OCc3cc4c(cc32)OCO4)cc1 | 101 | 138 |  | 
COc1ccc(N2Cc3ccccc3OCc3ccccc32)cc1 | 81 | 86 |  | 
COc1ccc2c(c1)COc1ccccc1CN2c1ccccc1 | 29 | 99 | inactive | 5.66
COc1cccc2c1OCc1cc3c(cc1N(c1ccccc1)C2)OCO3 | 101 | 78 |  | 
COc1ccccc1N1Cc2cccc(OC)c2OCc2ccccc21 | 119 | 89 |  | 
COc1ccc(N2Cc3cccc(OC)c3OCc3ccccc32)cc1 | 81 | 90 |  | 
c1ccc(N2Cc3ccccc3OCc3ccccc32)cc1 | 87 | 80 |  | 
